Measured values reported in patent publication US9989532B2, “Methods and compositions for detecting coagulation inhibitors” (The University of North Carolina at Chapel Hill, priority 2013, dated 2018).

What was measured:
thrombin = target: T1, thrombin (Homo sapiens, UniProt P00734); assay: substrate cleavage by thrombin in presence of sample; assay type: biochemical; details: substance in sample; substrate methoxycarbonyl-D-cyclohexylalanyl-glycyl-arginine-para-nitroaniline
T1 construct: Thrombin (factor IIa) was purchased from Haematologic Technologies; purchased Haematologic Technologies
Description: (§1) Substrate cleavage in the presence of test sample is measured for all four test conditions.
(§2) There are any number of substrates for thrombin and factor Xa and other proteases as described herein that can be used in the methods of this invention. In some embodiments, the substrate is a chromogenic substrate, which can be a para-nitroanalide synthetic substrate. Non-limiting examples of a chromogenic substrate of this invention include tosyl-glycyl-prolyl-arginine para-nitroanilide, H-D-cyclohexylglycyl-alanyl-arginine para-nitroanilide, H-beta-alanyl-glycyl-arginine para-nitroanilide, H-D-cyclohexylalanyl-alanyl-arginine para-nitroanilide, H-D-phenylalanyl-pipecolyl-arginine para-nitroanilide, H-D-(carbobenzoyl)lysyl-prolyl-arginine para-nitroanilide, H-beta-alanyl-glycyl-arginine 7-amino-4-methylcoumarin, H-D-cyclohexylglycyl-alanyl-arginine 7-amino-4-methylcoumarin, H-D-(carbobenzoyl)lysyl-prolyl-arginine 7-amino-4-methylcoumarin, methoxycarbonyl-D-cyclohexylalanyl-glycyl-arginine para-nitroanilide, methoxycarbonyl-D-cyclohexylglycyl-glycyl-arginine para-nitroanilide, benzoyloxycarbonyl-D-arginyl-glycyl-arginine para-nitroanilide, benzoyl-isoleucyl-glutamyl-glycyl-arginine para-nitroanilide, methylsulfonyl-D-cyclohexylalanyl-glycyl-arginine 7-amino-4-methylcoumarin, and methoxycarbonyl-D-cyclohexylalanyl-glycyl-arginine 7-amino-4-methylcoumarin.
(§3) Thrombin (factor IIa) was purchased from Haematologic Technologies. Factor Xa was purchased from Enzyme Research Labs.

a2M-thrombin (a2M-IIa) = target: T2, a2M-thrombin (a2M-IIa) (Homo sapiens, UniProt P00734); assay: substrate cleavage by a2M-IIa (thrombin caged in alpha-2-macroglobulin); assay type: biochemical; details: for cleavage of the substrate, (b) a2M-thrombin (a2M-IIa): substance in sample, substrate methoxycarbonyl-D-cyclohexylalanyl-glycyl-arginine-para-nitroaniline
T2 construct: Thrombin (factor IIa) was purchased from Haematologic Technologies; host or cells: no expression host: complex formed in vitro from purchased thrombin and a2M purified from human plasma, then purified on Q-Sepharose
Description: as §1, §2
(§4) 0.5 mM of para-nitroanilide synthetic substrate (Pefachrome FXa) was added and the rate of substrate cleavage determined by appearance of yellow color characteristic of the cleaved substrate. Pefachrome FXa is also effective as a substrate for thrombin.
Purified a2M-IIa was eluted from the column with 1M sodium chloride in 20 mM HEPES (pH 7.4).
(§5) The rates of substrate cleavage were converted to concentrations using measured Km and kcat values determined as previously described (Joost et al. “Inhibition of human blood coagulation factor Xa by alpha-2-macroglobulin” Biochemistry 26:5932-5937 (1987) doi: 10.1021/bi00392a053) (FIGS. 1-5).

factor Xa = target: T3, factor Xa (Homo sapiens, UniProt P00742); assay: substrate cleavage by factor Xa in presence of sample; assay type: biochemical; details: substance in sample; substrate methoxycarbonyl-D-cyclohexylalanyl-glycyl-arginine-para-nitroaniline
T3 construct: Factor Xa was purchased from Enzyme Research Labs; purchased Enzyme Research Labs
Description: as §1, §2, §3

a2M-Xa [1] = target: T4, a2M-Xa (Homo sapiens, UniProt P00742); assay: substrate cleavage by a2M-Xa (factor Xa caged in alpha-2-macroglobulin); assay type: biochemical; parameters: Factor Xa was purchased from Enzyme Research Labs; host or cells: no expression host: complex formed in vitro from purchased factor Xa and a2M purified from human plasma, then purified on heparin Sepharose and Q-Sepharose; details: for cleavage of the substrate, (d) a2M-Xa: substance in sample, substrate methoxycarbonyl-D-cyclohexylalanyl-glycyl-arginine-para-nitroaniline
Description: as §1, §2, §4, §5

[2] = cited from earlier work; for time to peak plasma concentration: after oral ingestion
mice = assay: saphenous vein injury bleeding time in mice; assay type: in vivo; details: FIG. 6, normal mouse
Description: Mice were administered 160 μg/kg rivaroxaban designed to produce a free plasma level of 36 ng/mL (75 nM), assuming 1.6% recovery based on estimates from Gnoth et al. (“in vitro and in vivo P-glycoprotein transport characteristics of rivaroxaban” J Pharmacol Exp Thor. 338:372-380 (2011) doi: 10.1124/jpet.111.180240) and Weinz et al. (“Pharmacokinetics of BAY 59-7939—an oral, direct Factor Xa inhibitor—in rats and dogs” Xenobiotica 35:891-910 (2005) doi: 10.1080/00498250500250493) and accounting for 95-98% blood cell and plasma protein binding (Weinz et al. “Pharmacokinetics of BAY 59-7939—an oral, direct Factor Xa inhibitor—in rats and dogs” Xenobiotica 35:891-910 (2005))

a2M-IIa = a2M-IIa substrate cleavage test on plasma of fed mice
Description: (§6) Mice were fed Xarelto or Pradaxa or regular chow. Plasma from the animals was analyzed for the presence of dabigatran (active metabolite of Pradaxa) or rivaroxaban (active component of Xarelto). […] 0.5 mM of para-nitroanilide synthetic substrate (Pefachrome FXa) was added and substrate cleavage was determined by appearance of yellow color characteristic of the cleaved substrate.

[3] = cited from earlier work
a2M-Xa [4] = target: T4, a2M-Xa; details: substance in plasma of mice fed Pradaxa or Xarelto
Description: as §6

[5] = assumed, based on estimates from Gnoth et al. and Weinz et al.; cited from earlier work

T3 sequence (P00742 235-488 limits assumed): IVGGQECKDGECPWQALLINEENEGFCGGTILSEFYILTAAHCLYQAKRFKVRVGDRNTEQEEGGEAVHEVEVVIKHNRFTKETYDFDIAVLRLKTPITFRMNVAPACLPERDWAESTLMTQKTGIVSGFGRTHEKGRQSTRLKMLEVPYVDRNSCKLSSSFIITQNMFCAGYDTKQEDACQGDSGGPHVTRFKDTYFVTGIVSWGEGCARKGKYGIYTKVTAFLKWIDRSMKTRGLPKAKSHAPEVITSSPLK
T3 sequence (P00742 41-179 limits assumed): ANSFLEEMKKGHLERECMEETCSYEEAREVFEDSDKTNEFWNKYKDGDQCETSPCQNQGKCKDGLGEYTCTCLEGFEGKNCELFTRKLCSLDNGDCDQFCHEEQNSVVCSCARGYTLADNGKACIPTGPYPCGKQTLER

Row | cleavage of the substrate, (a) Thrombin (thrombin) | cleavage of the substrate, (b) a2M-thrombin (a2M-IIa) (a2M-thrombin (a2M-IIa)) | cleavage of the substrate, (c) Factor Xa (factor Xa) | cleavage of the substrate, (d) a2M-Xa (a2M-Xa [1]) | Molecule | oral bioavailability [2] | time to peak plasma concentration [2] | further results
1 | Cleavage | Cleavage | Cleavage | Cleavage | CC(=O)CC(c1ccccc1)c1c(O)c2ccccc2oc1=O (stereo not drawn) [Warfarin] | – | – | –
2 | – | – | – | – | COc1ccc(-n2nc(C(N)=O)c3c2C(=O)N(c2ccc(N4CCCCC4=O)cc2)CC3)cc1 [apixaban] | more than 50% | – | eliminated by the kidneys ([2]; in vivo): 25%; metabolism ([2]; in vivo): metabolized in part by CYP3A4
3 | – | – | – | – | [H]/N=C(/N)c1ccc(NCc2nc3cc(C(=O)N(CCC(=O)O)c4ccccn4)ccc3n2C)cc1 [dabigatran] | 7.2% | approximately 1.5 hours | time for saphenous vein injury to stop bleeding (mice; 7 μg/kg dabigatran alone): more than 2 minutes; presence of Dabigatran in plasma (a2M-IIa; mice fed Pradaxa, animals 7-12): yes; presence of Dabigatran in plasma (a2M-IIa; mice fed Xarelto, animals 1-6): no; peak plasma level ([2]; healthy human volunteers): 150 ng/mL; route of excretion ([2]; oral treatment): predominantly excreted in the feces; bound to plasma proteins [3]: 35%
4 | No | Cleavage | No | Cleavage | heparin | – | – | –
5 | Cleavage | Cleavage | No | Cleavage | low molecular weight heparin | – | – | –

Row | Molecule | cleavage of the substrate, (a) Thrombin (thrombin) | cleavage of the substrate, (b) a2M-thrombin (a2M-IIa) (a2M-thrombin (a2M-IIa)) | cleavage of the substrate, (c) Factor Xa (factor Xa) | cleavage of the substrate, (d) a2M-Xa (a2M-Xa [1]) | oral bioavailability [2] | time to peak plasma concentration [2] | further results
6 | O=C(NC[C@H]1CN(c2ccc(N3CCOCC3=O)cc2)C(=O)O1)c1ccc(Cl)s1 [rivaroxaban] | Cleavage | Cleavage | No | No | more than 80% | approximately 3 hours | effect on substrate cleavage by purified a2M-IIa (a2M-thrombin (a2M-IIa); FIG. 1, buffer pH 7.4, 5 minutes incubation, 0.5 mM Pefachrome FXa): did not block substrate cleavage; time for saphenous vein injury to stop bleeding (mice; 160 μg/kg rivaroxaban alone): ~2 min; effect on a2M-IIa cleavage of substrate (a2M-IIa; substance in plasma of mice fed Pradaxa or Xarelto): had no effect; effect on a2M-Xa cleavage of substrate (a2M-Xa [4]): blocked; food effect on absorption from the gastrointestinal tract ([2]; in vivo): food does not affect absorption; excreted by the kidneys ([2]; orally ingested): Sixty-six; terminal half-life ([2]; steady state, patients >75 years old): up to 12 hours; blood cell and plasma protein binding [3]: 95-98%; recovery [5]: 1.6%; effect on substrate cleavage by purified a2M-Xa (a2M-Xa [1]; FIG. 2, buffer pH 7.4, 5 minutes incubation, 0.5 mM Pefachrome FXa): blocked substrate cleavage
